# Results as given in patent US4345938A, “Herbicidal 2-haloacetanilides” (Monsanto Company, priority 1980, dated 1982).
# Like-named read-outs stand apart in the source and are kept apart here.
# Tests used:
# Assay type in all cases: in vivo
# Echinochloa crus-galli [1] = experiment: Greenhouse transplant rice test, EC; details: about 3 WAT, read-out: Percent Inhibition, EC
# Description: (§1) The test procedure used in this greenhouse test is as follows: Ray silt loam top soil containing about 0.05% by weight of krillium and sifted through a […] screen is fumigated about 5-10 days prior to use. Pots are then filled with said Ray silt loam soil to a level to allow for a 1 in. (2.54 cm) flooding depth. Rice plants (Bluebelle) of 2 to 3 weeks age are transplanted to the pots and bulbs or seeds of the test weeds also planted in the pots. The pots are then flooded and the test chemical applied to the surface of the flood water. The flood water is reduced to allow for germination of the Echinochloa crus-galli (barnyardgrass) seed and subsequently reflooded and maintained in that condition. Observations of percent inhibition using a scale of 0-100% are made about 3 weeks after transplant (WAT).
# (§2) The test data in Table III for all compounds was obtained under identical test conditions. The weeds used in the tests herein have the following abbreviations in the tables: Echinochloa crus-galli (EC), Monochloria vaginalis (MV), Cyperus Serotinus (CS), Eleocharis Kuroguwai (EK) and Sagittaria trifolia (ST).
# Monochoria vaginalis [2] = experiment: Greenhouse transplant rice test, MV; details: Pontederia vaginalis, about 3 WAT, read-out: Percent Inhibition, MV
# Description: as §1, §2
# Monochoria vaginalis [3] = experiment: Field transplant rice test, applied 0 DAT, MV; details: Pontederia vaginalis, 0 h, read-out: Percent Inhibition, MV; for inhibition at 375 g/ha: 0.375 Kg/Ha; for inhibition at 750 g/ha: 0.75 Kg/Ha; for inhibition at 1500 g/ha: 1.5 Kg/Ha; for inhibition at 3000 g/ha: 3.0 Kg/Ha
# Experimental: as §2
# (§3) In further comparative tests, a preferred compound of this invention (Example 1) was tested in the field with prior art Compounds A-D. These tests were conducted under conditions reflecting herbicide application times generally favorable to all herbicides in the test. The timing of application of herbicides to transplant rice is very important, whether, as in some instances, prior to transplanting the rice; in other instances, at the time of transplanting or else after transplanting. Application times are conventionally referred to as "days before transplant" (DBT) or "days after transplant" ("DAT"). The field test data in Table IV was obtained from a test in which the herbicides were applied at the time of transplant, i.e., "0 DAT", with observations being made weekly up to six weeks after transplant ("WAT") beginning at two weeks after transplant; for illustrative and representative purposes, only the early, middle and late period observations, i.e., 2 WAT, 4 WAT and 6 WAT, are shown in Table IV. The data in Table IV is for rates of application common to all herbicides in the test, i.e., from 3.0 kg/ha (2.67 lb/A) down to 0.375 kg/ha (0.34 lb/A). All herbicides were applied at their actual or expected use rates, i.e., as granules containing 2.5% by weight herbicide for the compound of Example 1, Compounds B, C and D and 5.0% by weight for Compound A.
# Rice = experiment: Field transplant rice test, applied 0 DAT, rice injury; details: Oryza sativa, 0 h, read-out: Percent Inhibition, Rice; for inhibition at 375 g/ha: 0.375 Kg/Ha; for inhibition at 750 g/ha: 0.75 Kg/Ha; for inhibition at 1500 g/ha: 1.5 Kg/Ha; for inhibition at 3000 g/ha: 3.0 Kg/Ha
# Experimental: as §3
# Cyperus serotinus = experiment: Field transplant rice test, applied 9 DAT, CS; details: for inhibition at 375 g/ha / inhibition at 750 g/ha / inhibition at 1500 g/ha / inhibition at 3000 g/ha: Cyperus serotinus, 216 h, read-out: Percent Inhibition, CS; for inhibition at 375 g/ha: 0.375 Kg/Ha; for inhibition at 750 g/ha: 0.75 Kg/Ha; for inhibition at 1500 g/ha: 1.5 Kg/Ha; for inhibition at 3000 g/ha: 3.0 Kg/Ha
# Description: In the discussion of data below, occasional reference is made to herbicide application rates symbolized as "GR15 " and "GR85 "; these rates are given in kilograms per hectare (kg/ha) which are convertible into pounds per acre (lbs/A) by dividing the kg/ha rate by 1.12.
# A further guide to the effectiveness of a chemical as a selective herbicide is the "selectivity factor" ("SF") for a herbicide in given crops and weeds. The selectivity factor is a measure of the relative degree of crop safety and weed injury and is expressed in terms of the GR15 /GR85 ratio, i.e., the GR15 rate for the crop divided by the GR85 rate for the weed, both rates in kg/ha (lb/A.)
# as §2, §3
# In Table V are presented field data showing the relative performance of the compound of Example 1 and Compounds A-D applied 9 DAT, with observations being made weekly from 3 WAT to 7 WAT; again, for illustrative and representative purposes, only the early, middle and late period observations are reported in Table V, the herbicide rates and concentrations of active ingredients the same as is shown in Table IV.
# Echinochloa crus-galli [4] = experiment: Field transplant rice test, applied 0 DAT, EC; details: 0 h, read-out: Percent Inhibition, EC; for inhibition at 375 g/ha: 0.375 Kg/Ha; for inhibition at 750 g/ha: 0.75 Kg/Ha; for inhibition at 1500 g/ha: 1.5 Kg/Ha; for inhibition at 3000 g/ha: 3.0 Kg/Ha
# Experimental: as §2, §3
# Eleocharis kuroguwai = experiment: Field transplant rice test, applied 0 DAT, EK; details: 0 h, read-out: Percent Inhibition, EK; for inhibition at 375 g/ha: 0.375 Kg/Ha; for inhibition at 750 g/ha: 0.75 Kg/Ha; for inhibition at 1500 g/ha: 1.5 Kg/Ha; for inhibition at 3000 g/ha: 3.0 Kg/Ha
# Experimental: as §2, §3
smiles,measurement,setting,value
"CCCCOc1cccc(CC)c1N(CC)C(=O)CCl [Example 2, N-ethyl-2'-n-butoxy-6'-ethyl-2-chloroacetanilide]",inhibition at 280 g/ha,Echinochloa crus-galli [1]; 0.28 Kg/Ha,100%
same,inhibition at 560 g/ha,Echinochloa crus-galli [1]; 0.56 Kg/Ha,100%
same,inhibition at 1120 g/ha,Echinochloa crus-galli [1]; 1.12 Kg/Ha,100%
same,inhibition at 2240 g/ha,Echinochloa crus-galli [1]; 2.24 Kg/Ha,100%
same,inhibition at 280 g/ha,Monochoria vaginalis [2]; 0.28 Kg/Ha,100%
same,inhibition at 560 g/ha,Monochoria vaginalis [2]; 0.56 Kg/Ha,100%
same,inhibition at 1120 g/ha,Monochoria vaginalis [2]; 1.12 Kg/Ha,100%
same,inhibition at 2240 g/ha,Monochoria vaginalis [2]; 2.24 Kg/Ha,100%
"CCCOCCN(C(=O)CCl)c1c(CC)cccc1CC [Compound D, 2',6'-diethyl-N-(n-propoxyethyl)-2-chloroacetanilide]",inhibition at 375 g/ha,Monochoria vaginalis [3]; 2 WAT,90%
same,inhibition at 375 g/ha,Monochoria vaginalis [3]; 4 WAT,95%
same,inhibition at 375 g/ha,Monochoria vaginalis [3]; 6 WAT,83%
same,inhibition at 750 g/ha,Monochoria vaginalis [3]; 2 WAT,100%
same,inhibition at 750 g/ha,Monochoria vaginalis [3]; 4 WAT,99%
same,inhibition at 750 g/ha,Monochoria vaginalis [3]; 6 WAT,100%
same,inhibition at 1500 g/ha,Monochoria vaginalis [3]; 2 WAT,98%
same,inhibition at 1500 g/ha,Monochoria vaginalis [3]; 4 WAT,100%
same,inhibition at 1500 g/ha,Monochoria vaginalis [3]; 6 WAT,100%
same,inhibition at 3000 g/ha,Monochoria vaginalis [3]; 2 WAT,100%
same,inhibition at 3000 g/ha,Monochoria vaginalis [3]; 4 WAT,98%
same,inhibition at 3000 g/ha,Monochoria vaginalis [3]; 6 WAT,98%
same,inhibition at 375 g/ha,Rice; 2 WAT,0%
same,inhibition at 375 g/ha,Rice; 4 WAT,3%
same,inhibition at 375 g/ha,Rice; 6 WAT,2%
same,inhibition at 750 g/ha,Rice; 2 WAT,2%
same,inhibition at 750 g/ha,Rice; 4 WAT,2%
same,inhibition at 750 g/ha,Rice; 6 WAT,0%
same,inhibition at 1500 g/ha,Rice; 2 WAT,10%
same,inhibition at 1500 g/ha,Rice; 4 WAT,8%
same,inhibition at 1500 g/ha,Rice; 6 WAT,7%
same,inhibition at 3000 g/ha,Rice; 2 WAT,8%
same,inhibition at 3000 g/ha,Rice; 4 WAT,7%
same,inhibition at 3000 g/ha,Rice; 6 WAT,5%
same,inhibition at 375 g/ha,Cyperus serotinus; 3 WAT,92%
same,inhibition at 375 g/ha,Cyperus serotinus; 5 WAT,87%
same,inhibition at 375 g/ha,Cyperus serotinus; 7 WAT,67%
same,inhibition at 750 g/ha,Cyperus serotinus; 3 WAT,77%
same,inhibition at 750 g/ha,Cyperus serotinus; 5 WAT,67%
same,inhibition at 750 g/ha,Cyperus serotinus; 7 WAT,33%
same,inhibition at 1500 g/ha,Cyperus serotinus; 3 WAT,77%
same,inhibition at 1500 g/ha,Cyperus serotinus; 5 WAT,77%
same,inhibition at 1500 g/ha,Cyperus serotinus; 7 WAT,100%
same,inhibition at 3000 g/ha,Cyperus serotinus; 3 WAT,90%
same,inhibition at 3000 g/ha,Cyperus serotinus; 5 WAT,100%
same,inhibition at 3000 g/ha,Cyperus serotinus; 7 WAT,100%
same,"selectivity factor (GR15/GR85), CS in transplant rice",Cyperus serotinus; between 3 WAT and 7 WAT,1
same,inhibition at 375 g/ha,Echinochloa crus-galli [4]; 2 WAT,73%
same,inhibition at 375 g/ha,Echinochloa crus-galli [4]; 4 WAT,88%
same,inhibition at 375 g/ha,Echinochloa crus-galli [4]; 6 WAT,83%
same,inhibition at 750 g/ha,Echinochloa crus-galli [4]; 2 WAT,90%
same,inhibition at 750 g/ha,Echinochloa crus-galli [4]; 4 WAT,100%
same,inhibition at 750 g/ha,Echinochloa crus-galli [4]; 6 WAT,100%
same,inhibition at 1500 g/ha,Echinochloa crus-galli [4]; 2 WAT,97%
same,inhibition at 1500 g/ha,Echinochloa crus-galli [4]; 4 WAT,98%
same,inhibition at 1500 g/ha,Echinochloa crus-galli [4]; 6 WAT,93%
same,inhibition at 3000 g/ha,Echinochloa crus-galli [4]; 2 WAT,99%
same,inhibition at 3000 g/ha,Echinochloa crus-galli [4]; 4 WAT,100%
same,inhibition at 3000 g/ha,Echinochloa crus-galli [4]; 6 WAT,100%
same,inhibition at 375 g/ha,Eleocharis kuroguwai; 2 WAT,62%
same,inhibition at 375 g/ha,Eleocharis kuroguwai; 4 WAT,20%
same,inhibition at 375 g/ha,Eleocharis kuroguwai; 6 WAT,0%
same,inhibition at 750 g/ha,Eleocharis kuroguwai; 2 WAT,63%
same,inhibition at 750 g/ha,Eleocharis kuroguwai; 4 WAT,40%
same,inhibition at 750 g/ha,Eleocharis kuroguwai; 6 WAT,10%
same,inhibition at 1500 g/ha,Eleocharis kuroguwai; 2 WAT,70%
same,inhibition at 1500 g/ha,Eleocharis kuroguwai; 4 WAT,67%
same,inhibition at 1500 g/ha,Eleocharis kuroguwai; 6 WAT,47%
same,inhibition at 3000 g/ha,Eleocharis kuroguwai; 2 WAT,85%
same,inhibition at 3000 g/ha,Eleocharis kuroguwai; 4 WAT,75%
same,inhibition at 3000 g/ha,Eleocharis kuroguwai; 6 WAT,22%
